Assay: xn = mol fraction of the nth substance listed
Conditions: 101.3 kPa, Liquid, Falling or rolling sphere viscometry

C1CCCCC1 [cyclohexane] + CCOC(=O)OCC
x2 = 0
Conditions | viscosity [mPa·s]
293.15 K | 0.976
298.15 K | 0.894
303.15 K | 0.813
313.15 K | 0.697

CCCCCC [hexane] + CCOC(=O)OCC
x2 = 0
Conditions | viscosity [mPa·s]
293.15 K | 0.313
298.15 K | 0.301
303.15 K | 0.282
313.15 K | 0.258

CCCCCC [hexane] + COC(=O)OC
x2 = 0
Conditions | viscosity [mPa·s]
293.15 K | 0.313
298.15 K | 0.301
303.15 K | 0.282
313.15 K | 0.258

COC(=O)OC [dimethyl carbonate] + CCCCCCC
Conditions | viscosity [mPa·s]
293.15 K, x1 = 0.05 | 0.407
293.15 K, x1 = 0.094 | 0.405
293.15 K, x1 = 0.2039 | 0.407
293.15 K, x1 = 0.324 | 0.413
293.15 K, x1 = 0.4062 | 0.422
293.15 K, x1 = 0.5059 | 0.441
293.15 K, x1 = 0.6099 | 0.462
293.15 K, x1 = 0.6987 | 0.488
293.15 K, x1 = 0.8086 | 0.527
293.15 K, x1 = 0.9029 | 0.567
293.15 K, x1 = 0.9504 | 0.594
293.15 K, x1 = 1 | 0.626
298.15 K, x1 = 0.0594 | 0.383
298.15 K, x1 = 0.1204 | 0.384
298.15 K, x1 = 0.2132 | 0.385
298.15 K, x1 = 0.3135 | 0.388
298.15 K, x1 = 0.4018 | 0.397
298.15 K, x1 = 0.4716 | 0.406
298.15 K, x1 = 0.6051 | 0.43
298.15 K, x1 = 0.6946 | 0.452
298.15 K, x1 = 0.8031 | 0.489
298.15 K, x1 = 0.902 | 0.528
298.15 K, x1 = 0.9477 | 0.554
298.15 K, x1 = 1 | 0.585
303.15 K, x1 = 0.0586 | 0.37
303.15 K, x1 = 0.0873 | 0.367
303.15 K, x1 = 0.1996 | 0.368
303.15 K, x1 = 0.299 | 0.375
303.15 K, x1 = 0.4009 | 0.388
303.15 K, x1 = 0.5081 | 0.403
303.15 K, x1 = 0.6069 | 0.426
303.15 K, x1 = 0.6979 | 0.454
303.15 K, x1 = 0.8051 | 0.495
303.15 K, x1 = 0.9069 | 0.518
303.15 K, x1 = 0.9638 | 0.518
303.15 K, x1 = 1 | 0.536
313.15 K, x1 = 0.0649 | 0.33
313.15 K, x1 = 0.1157 | 0.328
313.15 K, x1 = 0.3432 | 0.334
313.15 K, x1 = 0.4378 | 0.341
313.15 K, x1 = 0.5458 | 0.355
313.15 K, x1 = 0.6259 | 0.37
313.15 K, x1 = 0.7191 | 0.393
313.15 K, x1 = 0.8128 | 0.416
313.15 K, x1 = 0.8798 | 0.443
313.15 K, x1 = 0.9536 | 0.475
313.15 K, x1 = 0.9822 | 0.485
313.15 K, x1 = 1 | 0.494

CCCCCCC [heptane] + COC(=O)OC
x2 = 0
Conditions | viscosity [mPa·s]
293.15 K | 0.411
298.15 K | 0.388
303.15 K | 0.37
313.15 K | 0.334

COC(=O)OC [dimethyl carbonate] + C1CCCCC1
Conditions | viscosity [mPa·s]
293.15 K, x1 = 0.0495 | 0.886
293.15 K, x1 = 0.0987 | 0.814
293.15 K, x1 = 0.2078 | 0.709
293.15 K, x1 = 0.2961 | 0.66
293.15 K, x1 = 0.3974 | 0.626
293.15 K, x1 = 0.5014 | 0.608
293.15 K, x1 = 0.6002 | 0.6
293.15 K, x1 = 0.7028 | 0.593
293.15 K, x1 = 0.7994 | 0.59
293.15 K, x1 = 0.9017 | 0.597
293.15 K, x1 = 0.9513 | 0.609
293.15 K, x1 = 1 | 0.626
298.15 K, x1 = 0.0378 | 0.833
298.15 K, x1 = 0.0808 | 0.776
298.15 K, x1 = 0.1764 | 0.681
298.15 K, x1 = 0.2896 | 0.619
298.15 K, x1 = 0.388 | 0.587
298.15 K, x1 = 0.4938 | 0.567
298.15 K, x1 = 0.5908 | 0.557
298.15 K, x1 = 0.6864 | 0.553
298.15 K, x1 = 0.7918 | 0.555
298.15 K, x1 = 0.8976 | 0.561
298.15 K, x1 = 0.9503 | 0.572
298.15 K, x1 = 1 | 0.585
303.15 K, x1 = 0.0391 | 0.758
303.15 K, x1 = 0.0931 | 0.703
303.15 K, x1 = 0.1875 | 0.632
303.15 K, x1 = 0.2908 | 0.581
303.15 K, x1 = 0.3897 | 0.545
303.15 K, x1 = 0.4962 | 0.522
303.15 K, x1 = 0.5958 | 0.508
303.15 K, x1 = 0.6909 | 0.504
303.15 K, x1 = 0.7975 | 0.507
303.15 K, x1 = 0.8912 | 0.522
303.15 K, x1 = 0.9441 | 0.528
303.15 K, x1 = 1 | 0.536
313.15 K, x1 = 0.101 | 0.605
313.15 K, x1 = 0.1482 | 0.574
313.15 K, x1 = 0.2563 | 0.524
313.15 K, x1 = 0.3646 | 0.495
313.15 K, x1 = 0.4661 | 0.477
313.15 K, x1 = 0.572 | 0.468
313.15 K, x1 = 0.6633 | 0.465
313.15 K, x1 = 0.7699 | 0.47
313.15 K, x1 = 0.8688 | 0.479
313.15 K, x1 = 0.9757 | 0.491
313.15 K, x1 = 0.9935 | 0.493
313.15 K, x1 = 1 | 0.494

From the NIST ThermoML archive (doi:10.1021/je020131a)
